Consider 1 compound from patent US20120213714A1, “Method and compositions as an adjunct for the prevention and treatment of periodontal disease” (priority 2011, published 2012).

For this experiment, the system named is Porphyromonas gingivalis. Put plainly: Porphyromonas gingivalis overnight culture, colony count on blood agar vs control. The experiment is classed as cell-based. On the procedure: After the overnight culture, the medium was diluted 1:10000 times, 5 μl of the diluted culture was applied to blood agar plate and cultured overnight. Calculated the number of colonies on the plates and compared with the control group to obtain the percentage of inhibition.

Values after ≈ are worked out from the molar mass of the structure shown.

For `CCCCC/C=C\C/C=C\C/C=C\CCCCC(=O)O` [omega-6 fatty acids (GLA), γ-linolenic acid], the IC50 (Porphyromonas gingivalis, overnight culture at 37° C, colonies counted vs control, read-out: IC50 / final concentration inhibiting 50% of Porphyromonas gingivalis growth) is ~5 µg/mL (≈ 18 µM). Where the note is “final concentration of 1 μg/ml”, the “inhibition of growth of Porphyromonas gingivalis” value is recorded as “significantly inhibit the growth”.
